Where two headings read alike, the source gives them in different places.
Assays:
[1] = system: tetrabenazine-induced sedation in mice; assay: Antitetrabenazine test: prevention of tetrabenazine-induced sedation and depression (exploratory activity and ptosis); format: in vivo, mice (Carworth CF1 S female); details: Mus musculus, po, 1 h
Description: This mouse test is predictive of human antidepressant response (Everett, G. M., "The Dopa Response Potentiation Test and Its Use in Screening for Antidepressant Drugs", pp. 164-167 in "Antidepressant Drugs", Proceedings of the First International Symposium, S. Garattini and M. N. G. Dukes, eds., 1967).
Groups of 10 Carworth CF1 S female mice, 18-21 g each, were fasted 1.5 hours and were intubated with a hydroxyguanidine as antagonist to tetrabenazine at oral doses of 5, 25 and 125 mg/kg in 0.20 ml of 1% methyl cellulose (Methocel.) Thirty minutes later the mice were challenged with tetrabenazine, 32 mg/kg intraperitoneally (dissolved in 0.20 ml of 0.05M KCl at pH 2.0). One hour after the hydroxyguanidine compound (30 minutes after tetrabenzine) the mice were examined for signs of exploratory activity and ptosis (eye-lid closure). Normal exploratory activity (relief from sedation) was recorded when a mouse lifted by the tail from a group of 10 in a testing box and placed on a stainless steel testing box lid (12.5 inch × 8 inch × 0.33 inch mesh) either turned its head horizontally 30° or moved to the edge of the screen withi 10 seconds after being placed on the screen. Relief from ptosis was recorded when exactly 2 seconds after placing the mouse facing the observer, lid closure was less than 50% in both eyes.

[2] = system: tetrabenazine-induced sedation in mice; assay: as above; format: in vivo, mice (Carworth CF1 S female); details: up to 81 mg/kg
[3] = tetrabenazine 32 mg/kg i.p. 30 min later, read 1 h after compound, read-out: Antitetrabenazine ED 50, Exploratory
[4] = tetrabenazine 32 mg/kg i.p. 30 min later, read 1 h after compound, read-out: Antitetrabenazine ED 50, Ptosis (dose which blocked ptosis in 50% of the mice)
[5] = tested as hydroxyguanidine HCl salt, tetrabenazine 32 mg/kg i.p., read-out: Antitetrabenazine ED 50, Exploratory
[6] = tested as hydroxyguanidine HCl salt, tetrabenazine 32 mg/kg i.p., read-out: Antitetrabenazine ED 50, Ptosis

| SMILES | ED50 [1, 3] [mg/kg] | ED50 [1, 4] [mg/kg] | Activity in the antitetrabenazine screen [2] | ED50 [1, 5] [mg/kg] | ED50 [1, 6] [mg/kg] |
| --- | --- | --- | --- | --- | --- |
| CNC(=NO)Nc1ccccc1 [Example 26, 1-Phenyl-3-methyl-2-hydroxyguanidine] | > 81 | 12.2 |  |  |  |
| CNC(=NO)NCc1ccccc1 [Example 27, 1-Benzyl-3-methyl-2-hydroxyguanidine] |  |  | inactive |  |  |
| CCN(C(N)=NO)c1ccccc1 [Example 12, 1-phenyl-1-ethylhydroxyguanidine] | 15.6 | 3 |  |  |  |
| CN(C(N)=NO)c1ccccc1 [Example 1, 1-phenyl-1-methylhydroxyguanidine] | > 81 | 1.1 |  | 9 | 1.1 |
| CCN(Cc1ccccc1)C(N)=NO [Example 3, 1-benzyl-1-ethylhydroxyguanidine] | 9 | 0.39 |  |  |  |
| CCCN(C(N)=NO)c1ccccc1 [Example 17, 1-phenyl-1-n-propylhydroxyguanidine] | > 81 | 20 |  |  |  |
| COc1ccc(CN(C)C(N)=NO)cc1 [Example 4, 1-p-methoxybenzyl-1-methylhydroxyguanidine] | > 81 | 59 |  |  |  |
| CN(Cc1ccc(Br)cc1)C(N)=NO [Example 6, 1-p-bromobenzyl-1-methylhydroxyguanidine] | > 81 | 17.4 |  |  |  |
| NC(=NO)NCc1ccccc1 [Example 19, 1-benzylhydroxyguanidine] |  |  |  | > 81 | 12.5 |
| Cc1ccc(N(C)C(N)=NO)cc1C [Example 23, 1-(3,4-xylyl)-1-methylhydroxyguanidine] | > 81 | 4.9 |  |  |  |
| CN(Cc1ccc(Cl)cc1)C(N)=NO [Example 10, 1-p-chlorobenzyl-1-methylhydroxyguanidine] | > 81 | 10.8 |  |  |  |
| CN(C(N)=NO)C1CCCCC1 [Example 18, 1-cyclohexyl-1-methylhydroxyguanidine] | > 81 | 9 |  |  |  |
| CN(Cc1ccc(F)cc1)C(N)=NO [Example 5, 1-p-fluorobenzyl-1-methylhydroxyguanidine] | > 81 | 8.1 |  |  |  |
| CN(Cc1ccccc1)C(N)=NO [Example 2, 1-benzyl-1-methylhydroxyguanidine] | 9 | 0.18 |  | > 81 | 0.43 |
| Cc1ccc(N(C)C(N)=NO)cc1 [Example 13, 1-p-tolyl-1-methylhydroxyguanidine] | 3 | 0.88 |  |  |  |
| CN(Cc1ccc(Cl)c(Cl)c1)C(N)=NO [Example 9, 1-(3,4-dichlorobenzyl)-1-methylhydroxyguanidine] | > 81 | 4.8 |  |  |  |
| CN(Cc1cccc([N+](=O)[O-])c1)C(N)=NO [Example 21, 1-m-nitrobenzyl-1-methylhydroxyguanidine] | > 81 | 66 |  |  |  |
| Cc1cccc(N(C)C(N)=NO)c1 [Example 24, 1-m-tolyl-1-methylhydroxyguanidine] |  | 0.4 |  |  |  |
| Cc1ccc(CN(C)C(N)=NO)cc1 [Example 7, 1-p-methylbenzyl-1-methylhydroxyguanidine] | > 81 | 23 |  |  |  |
| CN(Cc1cccc(Cl)c1)C(N)=NO [Example 20, 1-m-chlorobenzyl-1-methylhydroxyguanidine] | > 81 | 0.4 |  |  |  |
| COc1ccc(N(C)C(N)=NO)cc1 [Example 14, 1-p-methoxyphenyl-1-methylhydroxyguanidine] | > 81 | 20.5 |  |  |  |
| CN(C(N)=NO)c1cccc(Cl)c1 [Example 22, 1-m-chlorophenyl-1-methylhydroxyguanidine] | > 81 | 0.7 |  |  |  |
| CN(Cc1ccc([N+](=O)[O-])cc1)C(N)=NO [Example 8, 1-p-nitrobenzyl-1-methylhydroxyguanidine] | > 81 | 47 |  |  |  |
| CN(C(N)=NO)C1CCCC1 [Example 25, 1-cyclopentyl-1-methylhydroxyguanidine] |  |  |  | > 81 | 3 |
| CN(C(N)=NO)c1ccc(Cl)cc1 [Example 11, 1-p-chlorophenyl-1-methylhydroxyguanidine] | 81 | 0.82 |  |  |  |

Reference: patent US3954995A, “Mono-and disubstituted hydroxyguanidines in the treatment of depression” (E. I. Du Pont de Nemours and Company, priority 1974, dated 1976)
